Structures are written as SMILES. Where two headings read alike, the source gives them in different places.

This note sets out measurements from patent publication US9527842B2, “Inhibitors of human immunodeficiency virus replication” (priority 2013, dated 2016).

For data set [1] the following is noted: rcm bond, Hoveyda-Grubbs II, DCE.
The conditions of data set [2]: rcm bond, Hoveyda-Grubbs II, then H2, Pd/C, then NaOH, DCE, 3 steps.

`COC(=O)[C@@H](OC(C)(C)C)c1c(C)cn2nc3cc2c1N1CCC(C)(CC1)OCC=CC(C)COc1ccc(C)cc1-c1cccc-3c1` (some centres unmarked) registered a ring closure, isolated yield in data set [1] (from C=CCOC1(C)CCN(c2c([C@H](OC(C)(C)C)C(=O)OC)c(C)cn3nc(-c4cccc(-c5cc(C)ccc5OCC(C)C=C)c4)cc23)CC1, 20-membered ring, 2.13 mM, 85.0 °C, 2.0 h) of 82%.

As to `COC(=O)[C@@H](OC(C)(C)C)c1c(C)cn2nc3cc2c1N1CCC(C)(CC1)OCC=CCC[C@H](C)Oc1ccc(C)cc1-c1cccc-3c1`, the ring closure, yield after HPLC in data set [2] (from C=CCC[C@H](C)Oc1ccc(C)cc1-c1cccc(-c2cc3c(N4CCC(C)(OCC=C)CC4)c([C@H](OC(C)(C)C)C(=O)OC)c(C)cn3n2)c1, 21-membered ring, 1.86 mM, 85.0 °C, 3.0 h) worked out at 40.6%.

The compound `COC(=O)[C@@H](OC(C)(C)C)c1c(C)cn2nc3cc2c1N1CCC(C)(CC1)OCC=CCOc1ccccc1CC(O)CNC3=O` (some centres unmarked) came in with a ring closure, isolated yield in data set [1] (from C=CCOc1ccccc1CC(O)CNC(=O)c1cc2c(N3CCC(C)(OCC=C)CC3)c([C@H](OC(C)(C)C)C(=O)OC)c(C)cn2n1, 21-membered ring, 1.81 mM, 70.0 °C, 3.0 h) of 58%.

In turn, `COC(=O)[C@@H](OC(C)(C)C)c1c(C)cn2nc3cc2c1N1CCC(C)(CC1)OCC=CC[C@H](C)Oc1cc(F)ccc1-c1cccc-3c1` displayed a ring closure, yield after HPLC in data set [2] (from C=CCOC1(C)CCN(c2c([C@H](OC(C)(C)C)C(=O)OC)c(C)cn3nc(-c4cccc(-c5ccc(F)cc5O[C@@H](C)CC=C)c4)cc23)CC1, 20-membered ring, 1.57 mM, 85.0 °C, 2.0 h) of 49.8%.

`COC(=O)[C@@H](OC(C)(C)C)c1c(C)cn2nc3cc2c1N1CCC(C)(CC1)OCC=CC[C@H](C)Oc1ccc(C#N)cc1-c1cccc-3c1` registered a ring closure, isolated yield in data set [1] (from C=CCOC1(C)CCN(c2c([C@H](OC(C)(C)C)C(=O)OC)c(C)cn3nc(-c4cccc(-c5cc(C#N)ccc5O[C@@H](C)CC=C)c4)cc23)CC1, 20-membered ring, 1.51 mM, 85.0 °C, 2.0 h) of 82%.

Take `COC(=O)[C@@H](OC(C)(C)C)c1c(C)cn2nc3cc2c1N1CCC(C)(CC1)OCC=CC[C@H](C)Oc1ccc(C)c(F)c1-c1cccc-3c1`: the ring closure, yield after HPLC in data set [2] (from C=CCOC1(C)CCN(c2c([C@H](OC(C)(C)C)C(=O)OC)c(C)cn3nc(-c4cccc(-c5c(O[C@@H](C)CC=C)ccc(C)c5F)c4)cc23)CC1, 20-membered ring, 2.0 mM, 80.0 °C, 4.0 h) was 11%.

Regarding `COC(=O)[C@@H](OC(C)(C)C)c1c(C)cn2nc3cc2c1N1CCC(C)(CC1)OCC=CC[C@H](C)Oc1ccc(F)cc1-c1cccc-3c1`, the ring closure, yield after HPLC in data set [2] (from C=CCOC1(C)CCN(c2c([C@H](OC(C)(C)C)C(=O)OC)c(C)cn3nc(-c4cccc(-c5cc(F)ccc5O[C@@H](C)CC=C)c4)cc23)CC1, 20-membered ring, 2.02 mM, 85.0 °C, 2.0 h) was found to be 23.2%.

In data set [2] (from C=CCOC1(C)CCN(c2c([C@H](OC(C)(C)C)C(=O)OC)c(C)cn3nc(-c4cccc(-c5c(F)cccc5O[C@@H](C)CC=C)c4)cc23)CC1, 20-membered ring, 2.0 mM, 85.0 °C, 2.0 h), `COC(=O)[C@@H](OC(C)(C)C)c1c(C)cn2nc3cc2c1N1CCC(C)(CC1)OCC=CC[C@H](C)Oc1cccc(F)c1-c1cccc-3c1` displayed a ring closure, yield after HPLC of 19.6%.
